# Test results from US20150182492A1, “Ulcer Treatment” (United Arab Emirates University, priority 2013, published 2015).
# Key:
# [1] = tested on: gastric ulcer formation in rat stomachs; assay: Antiulcer activity, acidified ethanol-induced gastric ulcer; type: in vivo, rat (male Wistar); design: key to Ulcer Index, Mean: total length of hemorrhagic lesions (mm) = ulcer index; settings: for Ulcer Index, Mean: 30 min before acidified ethanol, control 95.00; for Ulcer index compared to the control (in words): acidified ethanol model, rats
# Procedure: (§1) Male Wistar rats (weighing 200-225 g) were fasted for 24 hours in wire mesh cages to avoid coprophagy. The rats were obtained from the animal facilities of the Faculty of Medicine and Health Sciences of the United Arab Emirates (UAE) University. Materials
# Rats were divided into groups of six to seven animals for each experiment. Each group received either neutral pH physiologic saline (1 mL) or water extract of either quercetin, diallyl sulfide or allyl disulfide (1 mg/kg, 10 mg/kg, 50 mg/kg or 100 mg/kg; six rats for each dose) by gastric gavage. Two additional comparison groups received either the proton pump inhibitor Lansoprazole (10 mg/kg) or the H2-receptor antagonist Ranitidine (20 mg/kg). After 30 minutes of the treatment, 1 mL of acidified ethanol (60% ethanol with 150 mM HCl), an ulcerogenic agent, was administered orally to the animals. The animals were sacrificed 1 hour later by increasing the dose of the anaesthesia. The abdomen was incised, and the stomachs removed, cut open along the greater curvature, and rinsed with saline to remove any adherent particles and mucus. The open stomach was spread on a sheet of cork so as to have a clear view of gastric lesions in the gastric mucosa. The total lengths of hemorrhagic lesions, which were approximately 1 mm in length and formed in the glandular portion of the gastric mucosa, were taken as ulcer index. An observer who was unaware of the drug treatments confirmed the ulcer index. The percentage reduction of the ulcer index in the drug-treated groups was calculated from the saline treated groups. The use of 60% ethanol in 150 mM HCl to produce an ulcerogenic effect was based on earlier observation that ethanol 50% and over provided a reproducible model of gastric damage.
# [2] = tested on: histamine stimulated gastric acid secretion from rat stomach; assay: Gastric acid secretion measured in vivo (histamine stimulated); design: species or system rat (male Wistar); settings: for Acid output, mean: histamine 2 mg/kg bolus; for Acid output compared to the histamine control (in words): treated orally, then challenged with histamine, FIGS. 1-3
# Procedure: as §1
# Groups of six rats were used for the experiment. Rats were initially anesthetized with urethane (1.5 g/kg) intraperitoneally. Following general anesthesia, a laparotomy was immediately performed followed by the insertion of a polyethylene tube at the pyloric end of the stomach. This tube was used to collect exudates from the stomach. An orogastric tube was inserted in the stomach via the esophagus. This tube was used to perfuse the stomach with saline (pH 7) at a constant rate of 7 mL/min at 37° C. Following perfusion, effluent samples were collected and titrated against 0.01 M NaOH every 15 minutes for acid secretion. After basal acid output for 1 hour, either saline, quercetin (50 mg/kg,), or diallyl sulfide (50 mg/kg), or allyl disulfide (10 mg/kg) at neutral pH was given orally and 30 minutes later, histamine (2 mg/kg) was administered as a bolus injection. Acid output was monitored continuously for 2 hours thereafter. The acid output was calculated and expressed as μmol (15 min^−1).
# [3] = dose 10 mg/kg by gastric gavage
# [4] = dose 50 mg/kg by gastric gavage
# [5] = dose 100 mg/kg by gastric gavage
Structure (SMILES),"Acid output, mean ([2]; time 0 min, 50 mg/kg oral)","Acid output, mean ([2]; time 30 min, 50 mg/kg oral)","Acid output, mean ([2]; time 45 min, 50 mg/kg oral)","Acid output, mean ([2]; time 60 min, 50 mg/kg oral)","Acid output, mean ([2]; time 75 min, 50 mg/kg oral)","Acid output, mean ([2]; time 90 min, 50 mg/kg oral)","Acid output, mean ([2]; time 105 min, 50 mg/kg oral)","Acid output, mean ([2]; time 120 min, 50 mg/kg oral)","Acid output, mean ([2]; time 135 min, 50 mg/kg oral)","Acid output, mean ([2]; time 150 min, 50 mg/kg oral)",Acid output compared to the histamine control (in words) [2],Ulcer index compared to the control (in words) [1],"Ulcer Index, Mean ([1]; dose 1 mg/kg by gastric gavage)","Ulcer Index, Mean [1, 3]","Ulcer Index, Mean [1, 4]","Ulcer Index, Mean [1, 5]",other results
"CNC(=C[N+](=O)[O-])NCCSCc1ccc(CN(C)C)o1 [Ranitidine, reference compound]",,,,,,,,,,,,,,,,,"Ulcer Index, Mean ([1]; dose 20 mg/kg): 28.50"
"C=CCSCC=C [Allyl sulfide, Diallyl sulfide]",1.926 μmol (15 min^−1),3.328 μmol (15 min^−1),2.023 μmol (15 min^−1),1.742 μmol (15 min^−1),1.901 μmol (15 min^−1),1.627 μmol (15 min^−1),1.761 μmol (15 min^−1),1.883 μmol (15 min^−1),2.301 μmol (15 min^−1),1.525 μmol (15 min^−1),reduced acid output compared to the histamine control,significantly reduced ulcer index compared to the control,114.83,72.33,5.50,13.00,
C=CCSSCC=C [Allyl disulfide],,,,,,,,,,,reduced acid output compared to the histamine control,significantly reduced ulcer index compared to the control,11.67,0.00,8.33,11.00,"Acid output, mean ([2]; time 0 min, 10 mg/kg oral): 2.154 μmol (15 min^−1); Acid output, mean ([2]; time 30 min, 10 mg/kg oral): 3.514 μmol (15 min^−1); Acid output, mean ([2]; time 45 min, 10 mg/kg oral): 2.458 μmol (15 min^−1); Acid output, mean ([2]; time 60 min, 10 mg/kg oral): 2.085 μmol (15 min^−1); Acid output, mean ([2]; time 75 min, 10 mg/kg oral): 2.701 μmol (15 min^−1); Acid output, mean ([2]; time 90 min, 10 mg/kg oral): 2.77 μmol (15 min^−1); Acid output, mean ([2]; time 105 min, 10 mg/kg oral): 2.648 μmol (15 min^−1); Acid output, mean ([2]; time 120 min, 10 mg/kg oral): 1.431 μmol (15 min^−1); Acid output, mean ([2]; time 135 min, 10 mg/kg oral): 1.286 μmol (15 min^−1); Acid output, mean ([2]; time 150 min, 10 mg/kg oral): 1.34 μmol (15 min^−1)"
"Cc1c(OCC(F)(F)F)ccnc1C[S+]([O-])c1nc2ccccc2[nH]1 (centres unmarked) [Lansoprazole, reference compound]",,,,,,,,,,,,,,13.00,,,
O=c1c(O)c(-c2ccc(O)c(O)c2)oc2cc(O)cc(O)c12 [Quercetin],1.633 μmol (15 min^−1),3.323 μmol (15 min^−1),1.299 μmol (15 min^−1),5.507 μmol (15 min^−1),2.579 μmol (15 min^−1),1.84 μmol (15 min^−1),1.868 μmol (15 min^−1),2.213 μmol (15 min^−1),1.927 μmol (15 min^−1),1.497 μmol (15 min^−1),reduced acid output compared to the histamine control,significantly reduced ulcer index compared to the control,34.00,34.00,21.83,31.17,
